Structures can show the parent of a compound that is named as a salt.
| Compound | melting point [°C] |
| --- | --- |
| O=C(NC1CN2CCC1CC2)OCc1ccc2c(c1)OCO2 (centres unmarked) (as salt: hydrochloride) | 186 to 187 |
| COc1cc(COC(=O)NC2CN3CCC2CC3)cc(OC)c1OC (centres unmarked) (as salt: hydrochloride) | 211 to 212 |

Source: patent US6780861B2, “Azabicyclic carbamates and their use as α-7 nicotinic acetylcholine receptor agonists” (Novartis AG, priority 2000, dated 2004)
